Experimental data reported in patent US7074789B2, “Kinase inhibitors” (Amgen Inc., priority 1999, dated 2006).

How the values were obtained:
Assay type in all cases: biochemical
[1] = target: T1, Lck (Homo sapiens, UniProt P06239); test: Kinase inhibition assay (33P transfer), Lck; details: read-out: Lck-1
T1 construct: Kinases are expressed as either kinase domains or full length constructs; made in house
How it was run: (§1)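 Recombinant kinase-domain or full-length fusion proteins (GST or His tag) served as enzyme. Substrate poly(Glu,Tyr) 4:1 or poly(Arg,Ser) 3:1 was bound to the plate; transferred 33P was read by liquid scintillation following acid washing.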

[2] = target: T2, Zap-70 (Homo sapiens, UniProt P43403); test: Kinase inhibition assay (33P transfer), Zap-70; details: read-out: Zap-1
T2 construct: Kinases are expressed as either kinase domains or full length constructs; made in house
T2 sequence (P43403 1-619): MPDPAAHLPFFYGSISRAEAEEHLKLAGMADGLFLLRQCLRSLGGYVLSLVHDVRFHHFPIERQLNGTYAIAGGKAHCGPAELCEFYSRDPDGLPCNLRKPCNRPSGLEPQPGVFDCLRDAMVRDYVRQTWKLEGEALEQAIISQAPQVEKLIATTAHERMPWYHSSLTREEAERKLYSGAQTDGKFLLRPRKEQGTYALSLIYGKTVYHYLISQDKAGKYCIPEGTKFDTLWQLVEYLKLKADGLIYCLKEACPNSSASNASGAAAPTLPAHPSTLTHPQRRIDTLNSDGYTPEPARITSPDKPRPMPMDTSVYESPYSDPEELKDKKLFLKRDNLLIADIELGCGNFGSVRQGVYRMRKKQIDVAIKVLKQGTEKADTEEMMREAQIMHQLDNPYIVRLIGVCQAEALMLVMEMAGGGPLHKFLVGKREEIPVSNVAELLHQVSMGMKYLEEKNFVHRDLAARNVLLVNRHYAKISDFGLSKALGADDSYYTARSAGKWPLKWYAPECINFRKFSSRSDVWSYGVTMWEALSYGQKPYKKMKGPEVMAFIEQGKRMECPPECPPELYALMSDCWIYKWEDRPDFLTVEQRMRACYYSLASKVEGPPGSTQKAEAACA
How it was run: as §1

[3] = target: T3, Itk (Homo sapiens, UniProt Q08881); test: Kinase inhibition assay (33P transfer), Itk; details: read-out: Itk-1
T3 construct: Kinases are expressed as either kinase domains or full length constructs; made in house
T3 sequence (Q08881 1-620): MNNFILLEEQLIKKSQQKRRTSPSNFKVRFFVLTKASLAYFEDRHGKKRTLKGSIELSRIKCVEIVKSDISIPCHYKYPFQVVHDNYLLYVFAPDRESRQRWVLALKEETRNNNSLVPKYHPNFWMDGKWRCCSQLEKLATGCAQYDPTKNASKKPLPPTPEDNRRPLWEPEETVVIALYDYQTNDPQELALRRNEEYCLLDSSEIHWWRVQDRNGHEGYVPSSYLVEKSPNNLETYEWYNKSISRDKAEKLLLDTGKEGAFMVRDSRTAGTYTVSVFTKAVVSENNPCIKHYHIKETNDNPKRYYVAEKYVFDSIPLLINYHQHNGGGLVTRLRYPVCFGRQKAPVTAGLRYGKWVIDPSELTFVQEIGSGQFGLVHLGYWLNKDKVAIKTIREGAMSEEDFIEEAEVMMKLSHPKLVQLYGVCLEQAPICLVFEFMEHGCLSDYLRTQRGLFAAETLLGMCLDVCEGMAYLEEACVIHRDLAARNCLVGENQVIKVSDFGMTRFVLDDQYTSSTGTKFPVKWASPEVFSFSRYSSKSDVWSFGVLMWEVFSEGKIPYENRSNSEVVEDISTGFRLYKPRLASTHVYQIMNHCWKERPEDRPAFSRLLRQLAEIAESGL
How it was run: (§2)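 Read-out: scintillation counts of 33P moved from ATP onto synthetic peptide polymer coated on the well surface, after washing with 0.5% phosphoric acid. Enzymes were tagged (GST or polyHistidine) and came from bacterial or insect-cell expression. IC50 marks 50% loss of incorporated label.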

[4] = target: T4, EGFR (Homo sapiens, UniProt P00533); test: Kinase inhibition assay (33P transfer), EGFR; details: Table 2, kinase inhibition class; read-out: EGFR-1
T4 construct: Kinases are expressed as either kinase domains or full length constructs; made in house
How it was run: as §2

[5] = target: T5, ErbB2 (Homo sapiens, UniProt P04626); test: Kinase inhibition assay (33P transfer), ErbB2; details: read-out: ErbB2-2
T5 construct: Kinases are expressed as either kinase domains or full length constructs; made in house
How it was run: as §2

[6] = target: T6, Kdr (Homo sapiens, UniProt P35968); test: Kinase inhibition assay (33P transfer), Kdr; details: read-out: KDR-1
T6 construct: Kinases are expressed as either kinase domains or full length constructs; made in house
How it was run: as §1

[7] = target: T7, Tek (Homo sapiens, UniProt Q02763); test: Kinase inhibition assay (33P transfer), Tek; details: read-out: Tek-1
T7 construct: Kinases are expressed as either kinase domains or full length constructs; made in house
How it was run: as §2

[8] = target: T8, c-Met (Homo sapiens, UniProt P08581); test: Kinase inhibition assay (33P transfer), c-Met; details: Table 2, kinase inhibition class; read-out: Met-1
T8 construct: Kinases are expressed as either kinase domains or full length constructs; made in house
How it was run: as §2

[9] = target: T9, AKT (Homo sapiens, UniProt Q9Y243); test: Kinase inhibition assay (33P transfer), AKT; details: Table 2, kinase inhibition class; read-out: AKT3-1
T9 construct: Kinases are expressed as either kinase domains or full length constructs; made in house
How it was run: as §1

[10] = target: T10, IGFR-1 (Homo sapiens, UniProt P08069); test: Kinase inhibition assay, IGFR-1 (Table 2); details: Table 2, kinase inhibition class
T10 construct: Kinases are expressed as either kinase domains or full length constructs; made in house

[11] = target: T11, PDGFRB (Homo sapiens, UniProt P09619); test: Kinase inhibition assay (33P transfer), PDGFRB; details: read-out: PDGFRB-1
T11 construct: Kinases are expressed as either kinase domains or full length constructs; made in house

T5 sequence (P04626 23-1255, species assumed): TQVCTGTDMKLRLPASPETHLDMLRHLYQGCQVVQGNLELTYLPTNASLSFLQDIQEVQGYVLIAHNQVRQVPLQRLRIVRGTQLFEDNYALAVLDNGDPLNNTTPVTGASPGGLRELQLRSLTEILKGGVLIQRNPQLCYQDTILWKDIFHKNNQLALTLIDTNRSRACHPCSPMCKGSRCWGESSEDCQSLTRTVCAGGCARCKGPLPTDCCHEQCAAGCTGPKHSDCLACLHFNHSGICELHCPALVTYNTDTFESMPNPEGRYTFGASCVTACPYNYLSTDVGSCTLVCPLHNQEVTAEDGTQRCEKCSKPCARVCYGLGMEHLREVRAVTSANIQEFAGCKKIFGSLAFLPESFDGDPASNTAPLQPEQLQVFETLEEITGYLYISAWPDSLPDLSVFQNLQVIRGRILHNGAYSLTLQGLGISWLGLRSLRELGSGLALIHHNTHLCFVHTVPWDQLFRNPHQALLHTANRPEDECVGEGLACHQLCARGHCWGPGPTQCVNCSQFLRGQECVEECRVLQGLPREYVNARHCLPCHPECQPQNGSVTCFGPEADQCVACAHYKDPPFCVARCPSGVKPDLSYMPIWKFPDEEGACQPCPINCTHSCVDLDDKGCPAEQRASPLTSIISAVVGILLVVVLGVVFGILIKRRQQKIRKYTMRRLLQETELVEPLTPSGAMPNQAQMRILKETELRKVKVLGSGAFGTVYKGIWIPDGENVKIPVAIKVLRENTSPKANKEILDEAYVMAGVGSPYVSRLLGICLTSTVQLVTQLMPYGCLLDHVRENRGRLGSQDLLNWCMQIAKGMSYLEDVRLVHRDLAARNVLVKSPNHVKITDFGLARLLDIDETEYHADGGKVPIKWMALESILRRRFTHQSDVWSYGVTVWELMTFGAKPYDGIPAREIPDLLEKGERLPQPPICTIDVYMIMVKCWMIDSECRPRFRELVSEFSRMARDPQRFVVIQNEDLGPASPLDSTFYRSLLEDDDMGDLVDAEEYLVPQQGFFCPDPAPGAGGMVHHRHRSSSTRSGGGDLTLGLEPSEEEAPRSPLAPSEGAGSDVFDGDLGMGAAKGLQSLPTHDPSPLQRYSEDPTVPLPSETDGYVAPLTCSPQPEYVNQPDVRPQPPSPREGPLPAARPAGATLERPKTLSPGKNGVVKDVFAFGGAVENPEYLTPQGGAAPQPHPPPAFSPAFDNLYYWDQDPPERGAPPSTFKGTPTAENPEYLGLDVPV
T4 sequence (P00533 25-1210, species assumed): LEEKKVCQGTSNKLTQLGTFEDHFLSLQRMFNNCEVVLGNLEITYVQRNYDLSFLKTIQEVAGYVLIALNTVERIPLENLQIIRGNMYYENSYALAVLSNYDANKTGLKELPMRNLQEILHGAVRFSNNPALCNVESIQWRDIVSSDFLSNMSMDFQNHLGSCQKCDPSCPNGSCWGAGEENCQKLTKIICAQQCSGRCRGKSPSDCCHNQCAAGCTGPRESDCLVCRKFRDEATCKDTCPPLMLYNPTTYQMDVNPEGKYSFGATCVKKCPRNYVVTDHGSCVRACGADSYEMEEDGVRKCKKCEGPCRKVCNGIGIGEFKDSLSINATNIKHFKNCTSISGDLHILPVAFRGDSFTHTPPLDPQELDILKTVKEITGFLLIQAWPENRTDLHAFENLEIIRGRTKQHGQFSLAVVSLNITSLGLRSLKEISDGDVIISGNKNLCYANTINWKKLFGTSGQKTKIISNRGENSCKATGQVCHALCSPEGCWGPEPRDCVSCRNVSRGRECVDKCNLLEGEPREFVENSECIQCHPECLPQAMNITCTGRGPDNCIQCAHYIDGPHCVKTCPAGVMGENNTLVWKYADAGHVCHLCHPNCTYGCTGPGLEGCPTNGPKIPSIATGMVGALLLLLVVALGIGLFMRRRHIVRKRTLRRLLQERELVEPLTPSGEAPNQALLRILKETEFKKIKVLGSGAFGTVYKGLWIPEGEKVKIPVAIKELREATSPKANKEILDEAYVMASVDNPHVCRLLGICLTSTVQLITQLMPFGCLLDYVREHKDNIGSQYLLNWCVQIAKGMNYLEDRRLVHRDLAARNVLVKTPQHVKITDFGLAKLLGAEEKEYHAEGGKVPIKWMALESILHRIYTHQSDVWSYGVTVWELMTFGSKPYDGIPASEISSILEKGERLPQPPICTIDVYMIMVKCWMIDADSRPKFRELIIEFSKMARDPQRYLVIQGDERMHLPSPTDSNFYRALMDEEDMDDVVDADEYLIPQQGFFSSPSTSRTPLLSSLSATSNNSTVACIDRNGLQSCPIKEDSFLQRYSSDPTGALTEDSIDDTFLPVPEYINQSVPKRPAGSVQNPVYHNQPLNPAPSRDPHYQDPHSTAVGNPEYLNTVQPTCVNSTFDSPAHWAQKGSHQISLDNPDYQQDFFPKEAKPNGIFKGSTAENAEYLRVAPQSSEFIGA
T7 sequence (Q02763 23-1124, species assumed): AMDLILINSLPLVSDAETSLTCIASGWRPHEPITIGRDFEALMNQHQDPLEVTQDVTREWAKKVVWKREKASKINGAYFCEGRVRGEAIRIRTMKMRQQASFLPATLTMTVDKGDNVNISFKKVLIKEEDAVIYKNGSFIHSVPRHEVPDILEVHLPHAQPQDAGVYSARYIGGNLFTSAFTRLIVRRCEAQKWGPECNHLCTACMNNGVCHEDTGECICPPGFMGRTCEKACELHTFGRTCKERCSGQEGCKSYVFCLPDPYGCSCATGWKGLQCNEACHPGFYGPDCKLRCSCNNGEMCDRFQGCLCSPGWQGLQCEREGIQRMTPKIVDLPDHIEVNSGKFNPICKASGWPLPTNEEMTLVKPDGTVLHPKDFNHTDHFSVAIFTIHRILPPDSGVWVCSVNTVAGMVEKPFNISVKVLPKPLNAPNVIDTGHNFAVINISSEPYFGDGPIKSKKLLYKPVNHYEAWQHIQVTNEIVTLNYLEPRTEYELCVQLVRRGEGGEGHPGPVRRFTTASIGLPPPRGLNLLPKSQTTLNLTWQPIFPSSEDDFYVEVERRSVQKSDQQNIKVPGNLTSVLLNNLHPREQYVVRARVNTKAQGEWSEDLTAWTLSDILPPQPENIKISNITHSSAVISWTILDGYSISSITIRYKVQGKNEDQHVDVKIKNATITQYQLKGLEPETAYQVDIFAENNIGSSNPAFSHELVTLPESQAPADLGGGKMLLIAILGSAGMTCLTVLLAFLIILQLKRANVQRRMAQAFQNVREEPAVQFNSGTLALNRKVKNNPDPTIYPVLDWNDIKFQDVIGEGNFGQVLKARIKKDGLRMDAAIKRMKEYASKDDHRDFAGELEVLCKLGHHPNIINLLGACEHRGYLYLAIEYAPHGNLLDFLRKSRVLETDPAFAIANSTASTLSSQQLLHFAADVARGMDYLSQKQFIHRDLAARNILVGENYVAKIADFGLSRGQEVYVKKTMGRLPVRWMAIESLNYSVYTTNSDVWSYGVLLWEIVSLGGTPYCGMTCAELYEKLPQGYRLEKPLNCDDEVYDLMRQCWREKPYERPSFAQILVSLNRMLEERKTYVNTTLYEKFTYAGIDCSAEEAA
T8 sequence (P08581 25-1390): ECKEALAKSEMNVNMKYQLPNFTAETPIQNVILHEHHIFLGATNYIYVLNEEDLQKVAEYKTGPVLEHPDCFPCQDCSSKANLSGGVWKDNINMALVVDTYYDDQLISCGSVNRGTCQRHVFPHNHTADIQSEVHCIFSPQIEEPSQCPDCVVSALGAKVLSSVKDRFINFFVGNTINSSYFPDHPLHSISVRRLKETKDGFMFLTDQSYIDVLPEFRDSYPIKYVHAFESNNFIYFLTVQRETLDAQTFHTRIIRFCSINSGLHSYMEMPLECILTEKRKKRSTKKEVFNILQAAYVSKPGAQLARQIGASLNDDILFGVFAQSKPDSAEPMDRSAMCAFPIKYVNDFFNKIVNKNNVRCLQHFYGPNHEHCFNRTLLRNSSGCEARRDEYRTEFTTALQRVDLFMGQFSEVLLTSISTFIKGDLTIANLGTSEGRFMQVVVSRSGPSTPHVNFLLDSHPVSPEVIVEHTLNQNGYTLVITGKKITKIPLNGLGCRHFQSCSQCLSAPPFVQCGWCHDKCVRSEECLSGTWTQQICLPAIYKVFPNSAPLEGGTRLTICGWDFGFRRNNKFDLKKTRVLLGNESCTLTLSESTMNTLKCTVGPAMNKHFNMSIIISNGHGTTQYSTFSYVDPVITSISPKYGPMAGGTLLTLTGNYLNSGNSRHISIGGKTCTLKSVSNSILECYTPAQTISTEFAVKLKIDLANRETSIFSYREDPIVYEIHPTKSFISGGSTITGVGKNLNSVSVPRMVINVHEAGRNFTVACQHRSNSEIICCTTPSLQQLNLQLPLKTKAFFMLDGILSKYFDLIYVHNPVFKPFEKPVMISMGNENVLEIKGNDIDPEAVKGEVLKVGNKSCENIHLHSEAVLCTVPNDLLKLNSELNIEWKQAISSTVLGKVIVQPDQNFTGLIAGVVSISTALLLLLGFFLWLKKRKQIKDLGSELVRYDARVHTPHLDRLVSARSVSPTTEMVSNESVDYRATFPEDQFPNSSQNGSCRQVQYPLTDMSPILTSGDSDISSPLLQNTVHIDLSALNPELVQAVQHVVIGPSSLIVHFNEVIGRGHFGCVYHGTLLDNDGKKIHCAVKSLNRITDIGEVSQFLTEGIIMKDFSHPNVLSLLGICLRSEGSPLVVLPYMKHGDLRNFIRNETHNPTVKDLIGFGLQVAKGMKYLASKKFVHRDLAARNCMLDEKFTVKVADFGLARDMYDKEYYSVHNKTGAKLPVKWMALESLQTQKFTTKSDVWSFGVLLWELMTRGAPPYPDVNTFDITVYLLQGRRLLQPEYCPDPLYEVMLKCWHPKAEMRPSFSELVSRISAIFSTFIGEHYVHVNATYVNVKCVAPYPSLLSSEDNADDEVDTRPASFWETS

Row | SMILES | IC50 [1] [µM] | IC50 [2] [µM] | IC50 [3] [µM] | IC50 [4] [µM] | IC50 [5] [µM] | IC50 [6] [µM] | IC50 [7] [µM] | IC50 [8] [µM] | IC50 [9] [µM] | IC50 [10] [µM] | IC50 [11] [µM]
1 | COc1cc(Nc2ncnc(-n3nc(-c4ccccc4)cc3N)n2)cc(OC)c1OC [Compound 520] | 0.954 to 5.72 | > 10.7 | 0.954 to 5.72 | > 10.7 | > 10.7 | > 10.7 | > 10.7 | > 10.7 | > 10.7 | 0.954 to 5.72 | > 10.7
2 | COc1cc(Nc2ncnc(-n3c(NCc4ccc(N(C)C)cc4)nc4ccccc43)n2)cc(OC)c1OC [Compound 593] | 0.76 to 4.56 | > 8.55 | > 8.55 | 4.56 to 6.65 | 4.56 to 6.65 | 0.76 to 4.56 | – | > 8.55 | > 8.55 | < 0.76 | 0.76 to 4.56
3 | COc1cc(Nc2ncnc(NC(=O)NCc3ccccc3)n2)cc(OC)c1OC [Compound 660] | 0.975 to 5.85 | > 11 | > 11 | 0.975 to 5.85 | 5.85 to 8.53 | > 11 | – | > 11 | > 11 | > 11 | > 11
4 | COC(=O)c1ccc(-c2cc(Nc3ncnc(Nc4cccc(CC(=O)O)c4)n3)[nH]n2)cc1 [Compound 604] | 0.898 to 5.39 | 5.39 to 7.86 | 0.898 to 5.39 | 0.898 to 5.39 | 0.898 to 5.39 | 0.898 to 5.39 | – | < 0.898 | 5.39 to 7.86 | 0.898 to 5.39 | 0.898 to 5.39
5 | COc1cc(Nc2ncnc(-n3c(NCc4ccc(C(F)(F)F)cc4)nc4ccccc43)n2)cc(OC)c1OC [Compound 598] | > 8.16 | > 8.16 | > 8.16 | > 8.16 | 6.35 to 8.16 | 0.725 to 4.35 | – | > 8.16 | > 8.16 | > 8.16 | > 8.16

More lines, now with the values ahead:

Row | IC50 [1] [µM] | IC50 [2] [µM] | IC50 [3] [µM] | IC50 [4] [µM] | IC50 [5] [µM] | IC50 [6] [µM] | IC50 [7] [µM] | IC50 [8] [µM] | IC50 [9] [µM] | IC50 [10] [µM] | IC50 [11] [µM] | SMILES
6 | 1.2 to 7.2 | > 13.5 | 1.2 to 7.2 | 7.2 to 10.5 | 1.2 to 7.2 | < 1.2 | 1.2 to 7.2 | 7.2 to 10.5 | > 13.5 | < 1.2 | 1.2 to 7.2 | COc1cccc(Nc2ncnc(-n3c(N)nc4ccccc43)n2)c1 [Compound 654]
7 | 0.752 to 4.51 | > 8.46 | > 8.46 | 6.58 to 8.46 | 0.752 to 4.51 | 0.752 to 4.51 | – | > 8.46 | 4.51 to 6.58 | 6.58 to 8.46 | 4.51 to 6.58 | COc1cc(Nc2ncnc(-n3c(NCc4ccc(Cl)cc4C)nc4ccccc43)n2)cc(OC)c1OC [Compound 597]
8 | 7.24 to 10.6 | 1.21 to 7.24 | 7.24 to 10.6 | 1.21 to 7.24 | 1.21 to 7.24 | 1.21 to 7.24 | 1.21 to 7.24 | 7.24 to 10.6 | 7.24 to 10.6 | 1.21 to 7.24 | 7.24 to 10.6 | CCc1ccc(Nc2ncnc(-n3c(N)nc4ccccc43)n2)cc1 [Compound 657]
9 | 1.32 to 7.91 | > 14.8 | 1.32 to 7.91 | > 14.8 | – | < 1.32 | 7.91 to 11.5 | 1.32 to 7.91 | > 14.8 | < 1.32 | 1.32 to 7.91 | Nc1nc2ccccc2n1-c1ncnc(Nc2ccccc2)n1 [Compound 651]
